Laboratory results from patent US6645984B2, “Arylisoxazoline derivatives, processes for their preparation and their use as pesticides” (Aventis CropScience GmbH, priority 2001, dated 2003).

Test system: Spodoptera litoralis
Assay: whole plant or invertebrate
Assay type: in vivo
Conditions: 96 h, read-out: larvae mortality
Procedure: Nutrient medium (freeze-dried cube) is dipped into an aqueous solution of the formulated preparation to be examined and then placed into a Petri dish. Ten L2 larvae of the Egyptian cotton leaf worm (Spodoptera litoralis) are then added. The Petri dish is then closed with a lid. The effect of the preparation on the larvae is determined after 4 days of storage at about 23° C. At a concentration of 500 ppm (based on the content of active compound), the preparations of Example Nos. 5, 9, 12, 28, 29, 30, 35, 39, 40, 41, 42, 43, 45, 46, 48, 52, 63, 87, 90, 91, 92, 94, 97, 98, 99, 100, 103, 107, 113, 117, 120, 125, 566, 567, 573, 574, 589, 600, 613, 614, 619, 626 effect a larvae mortality of 80-100%.

In the case of `CC1=NOC(c2ccc(C3COC(c4c(F)cccc4F)=N3)cc2)C1` (stereo not shown) [Example 566, 2-(2,6-Difluorophenyl)-4-(4-(3-methylisoxazolin-5-yl)phenyl)oxazoline], the mortality at 500 ppm is reported as 80 to 100%.
